Laboratory results taken from patent US10336762B2 (priority 2017, dated 2019).
Read-outs that look alike come from different tables or passages of the source.

Key:
TNFα = assay: cells; assay type: cell-based, human; settings: Homo sapiens, Monocyte, LPS-stimulated human monocytes, read-out: EC50 TNF
IRAK4 enzyme = IRAK4 enzyme (Homo sapiens (Human), UniProt Q9NWZ3); assay: biochemical; assay type: biochemical; settings: IRAK4 enzyme, 500 μM ATP
Sequence of IRAK4 enzyme (Q9NWZ3 whole entry): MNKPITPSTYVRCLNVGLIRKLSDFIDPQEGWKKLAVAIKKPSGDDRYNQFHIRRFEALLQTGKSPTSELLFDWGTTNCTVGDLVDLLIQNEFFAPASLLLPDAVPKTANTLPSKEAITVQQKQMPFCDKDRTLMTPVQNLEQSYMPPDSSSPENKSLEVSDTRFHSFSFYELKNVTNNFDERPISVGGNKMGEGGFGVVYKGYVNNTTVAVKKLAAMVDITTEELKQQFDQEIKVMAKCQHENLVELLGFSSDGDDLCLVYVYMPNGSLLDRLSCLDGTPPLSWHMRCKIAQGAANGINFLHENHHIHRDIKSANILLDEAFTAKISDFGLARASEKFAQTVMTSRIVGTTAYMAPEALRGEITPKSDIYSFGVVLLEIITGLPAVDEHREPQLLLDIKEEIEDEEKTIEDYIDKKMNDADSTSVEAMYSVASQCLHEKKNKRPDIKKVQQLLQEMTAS

Row | Structure (SMILES) | EC50 (TNFα; TNFα content) [nM] | IC50 (IRAK4 enzyme; TR-FRET (HTRF)) [nM] | IC50 (IRAK4 enzyme; TR-FRET) [nM] | EC50 (TNFα; TNFα by TR-FRET) [nM]
1 | CC(C)(O)[C@H](F)CNC(=O)c1cnc(-c2ccc3cc(C#N)cnn23)cc1N[C@H]1C[C@H](COC(=O)NC2CC2)C1 [Example 735, ((1R,3r)-3-((2-(3-cyano-pyrrolo[1,2-b]pyridazin-7-yl)-5-(((R)-2-fluoro-3-hydroxy-3-methylbutyl)carbamoyl)pyridin-4-yl)amino)cyclobutyl)methyl cyclopropylcarbamate] | 100 | 1 |  | 
2 | Cc1ncoc1-c1ccc(Nc2cc(-c3ccc4cc(C#N)cnn34)ncc2C(=O)NC[C@@H](F)C(C)(C)O)cc1 [Example 629, (R)-6-(3-cyanopyrrolo[1,2-b]pyridazin-7-yl)-N-(2-fluoro-3-hydroxy-3-methylbutyl)-4-((4-(4-methyloxazol-5-yl)phenyl)amino)nicotinamide] | 22 | < 1 |  | 
3 | CC(C)Nc1cc(-c2ccc3cc(C#N)cnn23)ncc1C(=O)NCCC(C)(C)N [Example 252, N-(3-amino-3-methyl-butyl)-6-(3-cyano-pyrrolo[1,2-b]pyridazin-7-yl)-4-(isopropylamino) nicotinamide] | 78 |  | 2 | 
4 | CC(C)(O)[C@H](F)CNC(=O)c1cnc(-c2ccc3cc(C#N)cnn23)cc1N[C@H]1C[C@](C)(O)C1 [Example 446, 6-(3-cyanopyrrolo[1,2-b]pyridazin-7-yl)-N-((R)-2-fluoro-3-hydroxy-3-methylbutyl)-4-(((1r,3R)-3-hydroxy-3-methylcyclobutyl)amino) nicotinamide] | 63 | 1 |  | 
5 | CC(=O)NC12CCC(Nc3cc(-c4ccc5cc(C#N)cnn45)ncc3C(=O)NCC#N)(CC1)CC2 [Example 476, 4-((4-acetamido-bicyclo[2.2.2]octan-1-yl)amino)-N-(cyano-methyl)-6-(3-cyano-pyrrolo[1,2-b]pyridazin-7-yl)nicotinamide] | 27 | < 1 |  | 
6 | CNC(=O)O[C@H]1C[C@@](C)(Nc2cc(-c3ccc4cc(C#N)cnn34)ncc2C(=O)NC[C@@H](F)C(C)(C)O)C1 [Example 356] | 800 |  | 6 | 
7 | CC(C)(O)[C@H](F)CNC(=O)c1cnc(-c2ccc3cc(C#N)cnn23)cc1NC12CCC(NC(=O)C(F)(F)F)(CC1)CC2 [Example 295, (R)-6-(3-cyanopyrrolo[1,2-b]pyridazin-7-yl)-N-(2-fluoro-3-hydroxy-3-methyl-butyl)-4-((4-(2,2,2-trifluoro-acetamido)bicyclo[2.2.2]octan-1-yl)amino) nicotinamide] | 38 |  | 1 | 
8 | CC(C)(O)[C@H](F)CNC(=O)c1cnc(-c2ccc3cc(C#N)cnn23)cc1N[C@H]1CC[C@H](N2CCC(F)(F)C2)CC1 [Example 723, 6-(3-cyanopyrrolo[1,2-b]pyridazin-7-yl)-4-(((1r,4R)-4-(3,3-difluoropyrrolidin-1-yl)cyclohexyl)amino)-N-((R)-2-fluoro-3-hydroxy-3-methylbutyl)nicotinamide] | 793 | 7 |  | 
9 | CC(C)Nc1cc(-c2ccc3cc(C#N)cnn23)ncc1C(=O)NC1CS(=O)(=O)C1 [Example 71, 6-(3-cyanopyrrolo[1,2-b]pyridazin-7-yl)-N-(1,1-dioxidothietan-3-yl)-4-(isopropylamino) nicotinamide] | 298 |  | 9 | 
10 | CC(C)(N)CCNC(=O)c1cnc(-c2ccc3cc(C#N)cnn23)cc1NC12CCC(O)(CC1)CC2 [Example 345, N-(3-amino-3-methylbutyl)-6-(3-cyanopyrrolo[1,2-b]pyridazin-7-yl)-4-((4-hydroxybicyclo[2.2.2]octan-1-yl)amino)nicotinamide] | 116 |  | 1 | 
11 | N#Cc1cnn2c(-c3cc(NC45CCC(O)(CC4)CC5)c(C(=O)NC[C@@H](F)C(=O)N4CC(F)(F)C4)cn3)ccc2c1 [Example 947, (R)-6-(3-cyanopyrrolo[1,2-b]pyridazin-7-yl)-N-(3-(3,3-difluoroazetidin-1-yl)-2-fluoro-3-oxopropyl)-4-((4-hydroxybicyclo[2.2.2]octan-1-yl)amino) nicotinamide] |  |  | < 1 | 207
12 | CC(C)(O)[C@H](F)CNC(=O)c1cnc(-c2ccc3cc(C#N)cnn23)cc1Nc1cnn(C2CCNCC2)c1 [Example 236, (R)-6-(3-cyanopyrrolo[1,2-b]pyridazin-7-yl)-N-(2-fluoro-3-hydroxy-3-methylbutyl)-4-((1-(piperidin-4-yl)-1H-pyrazol-4-yl)amino) nicotinamide] | 379 |  | 1 | 
13 | CC(C)(O)[C@H](F)CNC(=O)c1cnc(-c2ccc3cc(C#N)cnn23)cc1N[C@@H]1CCC[C@@H](O)C1 [Example 61, 6-(3-cyanopyrrolo[1,2-b]pyridazin-7-yl)-N-((R)-2-fluoro-3-hydroxy-3-methylbutyl)-4-(((1R,3R)-3-hydroxycyclohexyl)amino) nicotinamide] | 89 |  | < 1 | 
14 | CC(C)(O)[C@H](F)CNC(=O)c1cnc(-c2ccc3cc(C#N)cnn23)cc1Nc1ccc2c(c1)CNC2 [Example 863, (R)-6-(3-cyanopyrrolo[1,2-b]pyridazin-7-yl)-N-(2-fluoro-3-hydroxy-3-methylbutyl)-4-(isoindolin-5-ylamino)nicotinamide] |  |  | < 1 | 74
15 | CC(C)(O)[C@H](F)CNC(=O)c1cnc(-c2ccc3cc(C#N)cnn23)cc1NC1CCCC(S(C)(=O)=O)C1 (single isomer, unassigned) [Example 515] | 526 | 5 |  | 
16 | CC(C)(F)CNC(=O)c1cnc(-c2ccc3cc(C#N)cnn23)cc1NC12CCC(O)(CC1)CC2 [Example 740, 6-(3-cyanopyrrolo[1,2-b]pyridazin-7-yl)-N-(2-fluoro-2-methylpropyl)-4-((4-hydroxybicyclo[2.2.2]octan-1-yl)amino) nicotinamide] | 265 | 4 |  | 
17 | CN1CCC(C(=O)NC[C@H]2C[C@H](Nc3cc(-c4ccc5cc(C#N)cnn45)ncc3C(=O)NC[C@@H](F)C(C)(C)O)C2)CC1 [Example 794, 6-(3-cyanopyrrolo[1,2-b]pyridazin-7-yl)-N-((R)-2-fluoro-3-hydroxy-3-methylbutyl)-4-(((1r,3R)-3-((1-methylpiperidine-4-carboxamido)methyl)cyclo-butyl)amino)nicotinamide] | 997 | 2 |  | 
18 | CCOc1cnc(Nc2cc(-c3ccc4cc(C#N)cnn34)ncc2C(=O)NC[C@@H](F)C(C)(C)O)cn1 [Example 841, (R)-6-(3-cyanopyrrolo[1,2-b]pyridazin-7-yl)-4-((5-ethoxypyrazin-2-yl)amino)-N-(2-fluoro-3-hydroxy-3-methylbutyl)nicotinamide] |  |  | < 1 | 29
19 | CC(C)(O)[C@H](F)CNC(=O)c1cnc(-c2ccc3cc(C#N)cnn23)cc1Nc1ccc(CO)nc1 [Example 664, (R)-6-(3-cyanopyrrolo[1,2-b]pyridazin-7-yl)-N-(2-fluoro-3-hydroxy-3-methylbutyl)-4-((6-(hydroxymethyl)pyridin-3-yl)amino)nicotinamide] | 14 | < 1 |  | 
20 | CC(C)(O)[C@H](F)CNC(=O)c1cnc(-c2ccc3cc(C#N)cnn23)cc1N[C@@H]1CCOC[C@@H]1F [Example 57, 6-(3-cyanopyrrolo[1,2-b]pyridazin-7-yl)-N-((R)-2-fluoro-3-hydroxy-3-methylbutyl)-4-(((3R,4R)-3-fluorotetrahydro-2H-pyran-4-yl)amino)nicotinamide] | 46 |  | < 1 | 
21 | COC(=O)N[C@H]1CC[C@H](Nc2cc(-c3ccc4cc(C#N)cnn34)ncc2C(=O)NC[C@@H](F)C(C)(C)O)C1 [Example 750, methyl ((1S,3S)-3-((2-(3-cyanopyrrolo[1,2-b]pyridazin-7-yl)-5-(((R)-2-fluoro-3-hydroxy-3-methylbutyl)carbamoyl)pyridin-4-yl)amino)cyclopentyl) carbamate] | 198 | 1 |  | 
22 | CC(C)(O)[C@H](F)CNC(=O)c1cnc(-c2ccc3cc(C#N)cnn23)cc1Nc1ccn(Cc2ccccc2)n1 [Example 370, (R)-4-((1-benzyl-1H-pyrazol-3-yl)amino)-6-(3-cyanopyrrolo[1,2-b]pyridazin-7-yl)-N-(2-fluoro-3-hydroxy-3-methylbutyl)nicotinamide] | 10 |  | 1 | 
23 | CC(C)(O)[C@H](F)CNC(=O)c1cnc(-c2ccc3cc(C#N)cnn23)cc1N[C@H]1CC[C@H](NC(=O)OC2CCC2)CC1 [Example 288, cyclobutyl ((1R,4r)-4-((2-(3-cyanopyrrolo[1,2-b]pyridazin-7-yl)-5-(((R)-2-fluoro-3-hydroxy-3-methylbutyl)carbamoyl)pyridin-4-yl)amino)cyclohexyl)carbamate] | 54 |  | 1 | 
24 | CC(C)(O)[C@H](F)CNC(=O)c1cnc(-c2ccc3cc(C#N)cnn23)cc1Nc1ccc(-n2cnnc2)cc1 [Example 772, (R)-4-((4-(4H-1,2,4-triazol-4-yl)phenyl)amino)-6-(3-cyanopyrrolo[1,2-b]pyridazin-7-yl)-N-(2-fluoro-3-hydroxy-3-methylbutyl)nicotinamide] | 14 | < 1 |  | 
25 | CN(C)S(=O)(=O)N1CCC(Nc2cc(-c3ccc4cc(C#N)cnn34)ncc2C(=O)NC[C@@H](F)C(C)(C)O)CC1 [Example 244, (R)-6-(3-cyanopyrrolo[1,2-b]pyridazin-7-yl)-4-((1-(N,N-dimethylsulfamoyl)piperidin-4-yl)amino)-N-(2-fluoro-3-hydroxy-3-methylbutyl) nicotinamide] | 102 |  | 1 | 
26 | CC(C)OC(=O)N[C@H]1CC[C@H](Nc2cc(-c3ccc4cc(C#N)cnn34)ncc2C(=O)NC[C@@H](F)C(C)(C)O)CC1 [Example 291, isopropyl ((1R,4r)-4-((2-(3-cyanopyrrolo[1,2-b]pyridazin-7-yl)-5-(((R)-2-fluoro-3-hydroxy-3-methylbutyl)carbamoyl)pyridin-4-yl)amino)cyclohexyl)carbamate] | 90 |  | 2 | 
